In patent publication US12509457B2, “Bicyclic nitrogen containing heterocycles as inhibitors of salt-induced kinase SIK2” (priority 2019, dated 2025):
Where two headings read alike, the source gives them in different places.

Key:
Type in all cases: biochemical
SIK1 = SIK1 (Homo sapiens, UniProt P57059); assay: SIK1 kinase assay, IMAP fluorescence polarization; settings: 50 or 100 μM ATP; average; read-out: SIK1-AVERAGE Ki
SIK2 = SIK2 (Homo sapiens, UniProt Q9H0K1); assay: SIK2 kinase assay, IMAP fluorescence polarization; settings: 50 or 100 μM ATP; average; read-out: SIK2-AVERAGE Ki
Abl = Abl (Homo sapiens, UniProt P00519); assay: Abl kinase assay, IMAP fluorescence polarization; settings: 50 or 100 μM ATP; average; read-out: Abl-AVERAGE Ki
Src = Src (Homo sapiens, UniProt P12931); assay: Src kinase assay, IMAP fluorescence polarization; settings: 50 or 100 μM ATP; average; read-out: Src-AVERAGE Ki
SIK3 = SIK3 (Homo sapiens, UniProt Q9Y2K2); assay: SIK3 kinase assay, IMAP fluorescence polarization; settings: 50 or 100 μM ATP; average; read-out: SIK3-AVERAGE Ki
EPHA2 = EPHA2 (Homo sapiens, UniProt P29317); assay: EPHA2 kinase assay, IMAP fluorescence polarization

Sequence of Abl (P00519 whole entry): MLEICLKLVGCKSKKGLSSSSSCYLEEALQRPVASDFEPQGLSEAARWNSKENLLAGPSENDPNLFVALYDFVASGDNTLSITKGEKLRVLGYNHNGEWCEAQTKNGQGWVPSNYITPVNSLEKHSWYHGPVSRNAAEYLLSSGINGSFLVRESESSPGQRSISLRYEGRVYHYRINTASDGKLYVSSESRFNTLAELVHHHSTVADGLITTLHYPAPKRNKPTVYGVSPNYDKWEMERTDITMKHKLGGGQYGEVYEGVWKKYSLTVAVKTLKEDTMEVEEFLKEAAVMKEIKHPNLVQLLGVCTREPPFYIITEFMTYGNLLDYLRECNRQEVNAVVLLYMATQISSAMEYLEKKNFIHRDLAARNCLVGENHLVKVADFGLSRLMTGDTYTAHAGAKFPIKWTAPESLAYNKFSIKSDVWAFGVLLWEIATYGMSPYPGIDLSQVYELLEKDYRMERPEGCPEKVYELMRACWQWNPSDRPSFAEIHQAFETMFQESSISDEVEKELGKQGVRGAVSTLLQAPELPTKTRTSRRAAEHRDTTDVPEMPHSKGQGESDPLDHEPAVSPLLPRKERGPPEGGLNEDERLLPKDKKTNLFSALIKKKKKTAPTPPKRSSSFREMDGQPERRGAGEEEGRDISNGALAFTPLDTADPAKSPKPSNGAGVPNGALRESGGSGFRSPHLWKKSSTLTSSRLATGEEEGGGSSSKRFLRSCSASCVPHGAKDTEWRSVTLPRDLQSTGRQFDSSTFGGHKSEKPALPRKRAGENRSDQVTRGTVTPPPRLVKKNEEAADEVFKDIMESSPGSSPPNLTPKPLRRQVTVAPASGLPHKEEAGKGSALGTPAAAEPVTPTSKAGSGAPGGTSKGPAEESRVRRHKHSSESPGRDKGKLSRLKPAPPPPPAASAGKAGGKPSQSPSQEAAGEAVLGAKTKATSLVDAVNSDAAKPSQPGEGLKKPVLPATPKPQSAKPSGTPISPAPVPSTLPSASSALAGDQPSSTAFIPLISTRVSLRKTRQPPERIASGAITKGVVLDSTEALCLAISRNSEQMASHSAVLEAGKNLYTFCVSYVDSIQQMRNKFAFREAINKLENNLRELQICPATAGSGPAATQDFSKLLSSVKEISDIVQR
Sequence of SIK1 (P57059 whole entry): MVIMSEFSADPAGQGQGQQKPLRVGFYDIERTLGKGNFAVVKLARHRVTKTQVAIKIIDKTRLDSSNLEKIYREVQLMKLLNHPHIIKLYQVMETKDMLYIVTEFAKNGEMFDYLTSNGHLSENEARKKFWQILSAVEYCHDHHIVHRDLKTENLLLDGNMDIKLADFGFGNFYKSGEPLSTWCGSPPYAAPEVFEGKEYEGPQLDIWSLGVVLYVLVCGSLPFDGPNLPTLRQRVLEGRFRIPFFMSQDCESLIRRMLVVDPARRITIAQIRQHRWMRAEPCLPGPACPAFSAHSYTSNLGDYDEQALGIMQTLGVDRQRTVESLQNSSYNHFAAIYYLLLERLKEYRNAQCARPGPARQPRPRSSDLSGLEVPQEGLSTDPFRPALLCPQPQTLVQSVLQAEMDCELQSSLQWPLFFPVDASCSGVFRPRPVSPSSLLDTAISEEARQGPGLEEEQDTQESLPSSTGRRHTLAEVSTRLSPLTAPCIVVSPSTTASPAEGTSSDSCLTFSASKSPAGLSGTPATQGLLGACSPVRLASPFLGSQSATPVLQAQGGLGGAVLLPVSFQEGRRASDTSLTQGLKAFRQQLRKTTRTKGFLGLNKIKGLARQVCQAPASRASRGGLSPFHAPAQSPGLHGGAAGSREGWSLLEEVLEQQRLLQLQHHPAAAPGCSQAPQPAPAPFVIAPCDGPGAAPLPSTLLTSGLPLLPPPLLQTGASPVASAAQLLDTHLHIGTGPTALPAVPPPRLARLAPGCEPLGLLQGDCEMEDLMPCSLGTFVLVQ
Sequence of SIK2 (Q9H0K1 whole entry): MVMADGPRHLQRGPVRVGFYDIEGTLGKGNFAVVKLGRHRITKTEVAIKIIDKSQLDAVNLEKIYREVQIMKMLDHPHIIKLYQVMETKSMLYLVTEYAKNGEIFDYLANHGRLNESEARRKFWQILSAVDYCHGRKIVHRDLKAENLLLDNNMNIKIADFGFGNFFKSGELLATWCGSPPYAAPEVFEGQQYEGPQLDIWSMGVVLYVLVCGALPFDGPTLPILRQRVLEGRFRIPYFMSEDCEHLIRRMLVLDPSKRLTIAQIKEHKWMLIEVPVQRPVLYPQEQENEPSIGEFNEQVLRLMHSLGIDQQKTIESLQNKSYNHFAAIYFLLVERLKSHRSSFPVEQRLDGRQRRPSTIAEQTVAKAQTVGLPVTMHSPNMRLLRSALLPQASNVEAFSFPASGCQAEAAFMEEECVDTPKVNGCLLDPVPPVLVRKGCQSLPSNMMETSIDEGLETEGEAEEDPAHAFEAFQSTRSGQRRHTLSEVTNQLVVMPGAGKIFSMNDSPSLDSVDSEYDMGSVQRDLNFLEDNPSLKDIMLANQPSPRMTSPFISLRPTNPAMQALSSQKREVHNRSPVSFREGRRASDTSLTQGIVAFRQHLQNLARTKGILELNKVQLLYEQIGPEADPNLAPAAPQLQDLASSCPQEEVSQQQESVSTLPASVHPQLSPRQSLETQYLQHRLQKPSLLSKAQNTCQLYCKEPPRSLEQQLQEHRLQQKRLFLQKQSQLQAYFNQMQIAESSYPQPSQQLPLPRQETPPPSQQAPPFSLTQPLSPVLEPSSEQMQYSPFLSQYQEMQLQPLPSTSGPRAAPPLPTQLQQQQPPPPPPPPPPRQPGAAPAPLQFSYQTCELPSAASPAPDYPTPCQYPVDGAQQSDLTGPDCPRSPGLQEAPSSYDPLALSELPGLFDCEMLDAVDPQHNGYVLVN
Sequence of SIK3 (Q9Y2K2 whole entry): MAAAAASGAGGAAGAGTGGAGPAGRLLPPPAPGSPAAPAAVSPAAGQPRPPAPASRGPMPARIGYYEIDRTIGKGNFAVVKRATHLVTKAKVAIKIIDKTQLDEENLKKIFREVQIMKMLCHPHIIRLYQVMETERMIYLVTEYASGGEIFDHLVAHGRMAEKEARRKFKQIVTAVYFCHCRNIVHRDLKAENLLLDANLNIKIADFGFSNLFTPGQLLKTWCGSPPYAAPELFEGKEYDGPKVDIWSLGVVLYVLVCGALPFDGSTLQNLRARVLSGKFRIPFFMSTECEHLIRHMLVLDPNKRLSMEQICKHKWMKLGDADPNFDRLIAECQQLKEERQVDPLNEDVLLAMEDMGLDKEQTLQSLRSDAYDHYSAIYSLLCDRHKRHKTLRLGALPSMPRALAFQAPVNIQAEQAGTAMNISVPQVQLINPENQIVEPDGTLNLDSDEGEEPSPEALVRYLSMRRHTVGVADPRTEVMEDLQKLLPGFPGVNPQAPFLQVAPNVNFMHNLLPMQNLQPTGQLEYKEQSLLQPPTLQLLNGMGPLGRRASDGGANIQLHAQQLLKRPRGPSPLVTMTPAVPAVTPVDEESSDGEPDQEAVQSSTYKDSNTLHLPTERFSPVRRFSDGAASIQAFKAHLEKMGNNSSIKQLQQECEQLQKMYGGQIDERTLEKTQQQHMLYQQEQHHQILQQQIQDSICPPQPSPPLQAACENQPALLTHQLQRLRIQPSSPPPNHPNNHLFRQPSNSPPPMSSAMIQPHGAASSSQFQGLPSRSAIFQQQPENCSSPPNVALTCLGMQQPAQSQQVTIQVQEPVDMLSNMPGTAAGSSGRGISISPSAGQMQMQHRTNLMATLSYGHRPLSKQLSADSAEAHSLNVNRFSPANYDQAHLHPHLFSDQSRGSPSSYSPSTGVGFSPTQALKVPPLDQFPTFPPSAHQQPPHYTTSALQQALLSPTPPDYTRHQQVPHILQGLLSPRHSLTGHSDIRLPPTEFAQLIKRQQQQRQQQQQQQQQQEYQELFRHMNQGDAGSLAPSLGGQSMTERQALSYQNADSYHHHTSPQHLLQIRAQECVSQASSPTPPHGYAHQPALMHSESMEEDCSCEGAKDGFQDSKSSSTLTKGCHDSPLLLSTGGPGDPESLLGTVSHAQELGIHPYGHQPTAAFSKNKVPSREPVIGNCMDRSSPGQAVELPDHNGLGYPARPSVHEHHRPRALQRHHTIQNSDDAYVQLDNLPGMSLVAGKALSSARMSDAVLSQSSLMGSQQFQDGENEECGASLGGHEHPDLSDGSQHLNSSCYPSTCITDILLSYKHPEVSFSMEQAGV
Sequence of Src (P12931 whole entry): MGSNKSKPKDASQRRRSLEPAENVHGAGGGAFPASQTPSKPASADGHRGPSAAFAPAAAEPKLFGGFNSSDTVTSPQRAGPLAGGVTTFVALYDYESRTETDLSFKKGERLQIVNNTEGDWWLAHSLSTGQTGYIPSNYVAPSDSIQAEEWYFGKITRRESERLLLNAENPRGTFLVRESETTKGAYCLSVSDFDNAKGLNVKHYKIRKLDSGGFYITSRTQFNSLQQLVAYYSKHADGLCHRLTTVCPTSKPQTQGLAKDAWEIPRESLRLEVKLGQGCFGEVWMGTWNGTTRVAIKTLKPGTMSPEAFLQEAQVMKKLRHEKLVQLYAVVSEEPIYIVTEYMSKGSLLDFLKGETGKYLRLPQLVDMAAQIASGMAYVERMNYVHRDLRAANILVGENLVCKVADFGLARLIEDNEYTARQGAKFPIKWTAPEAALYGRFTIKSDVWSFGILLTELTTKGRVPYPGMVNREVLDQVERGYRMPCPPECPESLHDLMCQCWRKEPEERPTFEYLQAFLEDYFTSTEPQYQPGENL

Compound	Ki (SIK1)	Ki (SIK2)	Ki (Abl)	Ki (Src)	Ki (SIK3)	Ki (EPHA2; 50 or 100 μM ATP, average)	Ki (EPHA2)
Cc1cccc(F)c1N1Cc2cnc(N)cc2N(C2CNC2)C1=O [Example 4, 7-amino-1-(azetidin-3-yl)-3-(2-fluoro-6-methyl-phenyl)-4H-pyrido[4,3-d]pyrimidin-2-one]	7.92 nM	4.08 nM	187 nM	547 nM	35.3 nM	–	221 nM
Cc1cccc(F)c1N1Cc2cnc(N)cc2N([C@H]2CCCNCC2)C1=O [Example 54, 7-amino-1-[(4S)-azepan-4-yl]-3-(2-fluoro-6-methyl-phenyl)-4H-pyrido[4,3-d]pyrimidin-2-one]	2.08 nM	0.719 nM	64.9 nM	423 nM	4.14 nM	213 nM	–
CNC1CCCC(N2C(=O)N(c3c(C)cccc3F)Cc3cnc(N)cc32)C1 (stereo not drawn) [Example 57, 7-amino-3-(2-fluoro-6-methyl-phenyl)-1-[3-(methylamino)cyclohexyl]-4H-pyrido[4,3-d]pyrimidin-2-one]	1.1 nM	0.396 nM	17 nM	61.5 nM	3.05 nM	42.6 nM	–
Cc1cccc(F)c1N1Cc2cnc(N)cc2N([C@@H]2CCNC2)C1=O [Example 47, 7-Amino-3-(2-fluoro-6-methyl-phenyl)-1-[(3R)-pyrrolidin-3-yl]-4H-pyrido[4,3-d]pyrimidin-2-one]	2.6 nM	1.32 nM	> 1000 nM	> 1000 nM	16.6 nM	247 nM	–
Cc1cccc(Cl)c1N1Cc2cnc(N)cc2N(C2CN(C)C2)C1=O [Example 9, 7-amino-3-(2-chloro-6-methyl-phenyl)-1-(1-methylazetidin-3-yl)-4H-pyrido[4,3-d]pyrimidin-2-one]	29.2 nM	17.9 nM	> 1000 nM	> 1000 nM	145 nM	–	175 nM
Cc1cccc(F)c1N1Cc2cnccc2N([C@H]2CCCCNC2)C1=O [Example 52, 3-(2-fluoro-6-methyl-phenyl)-1-[(3S)-azepan-3-yl]-4H-pyrido[4,3-d]pyrimidin-2-one]	42 nM	13.7 nM	> 10000 nM	> 10000 nM	288 nM	1520 nM	–
Cc1cccc(F)c1N1Cc2cnc(N)cc2N([C@H]2CCCN(C)CC2)C1=O [Example 86, 7-amino-3-(2-fluoro-6-methyl-phenyl)-1-[(4S)-1-methylazepan-4-yl]-4H-pyrido[4,3-d]pyrimidin-2-one]	1.86 nM	0.592 nM	94.7 nM	644 nM	6.15 nM	502 nM	–
Cc1cccc(F)c1N1Cc2cnc(N)cc2N([C@H]2CCC[C@H](N)C2)C1=O (relative stereo) [Example 55, 7-amino-1-[(trans)-3-aminocyclohexyl]-3-(2-fluoro-6-methyl-phenyl)-4H-pyrido[4,3-d]pyrimidin-2-one]	1.25 nM	0.364 nM	14.3 nM	33 nM	4.71 nM	7.16 nM	–
Cc1cccc(F)c1N1Cc2cnc(N)cc2N(CC2CCNCC2)C1=O [Example 2, 7-amino-3-(2-fluoro-6-methyl-phenyl)-1-(4-piperidylmethyl)-4H-pyrido[4,3-d]pyrimidin-2-one]	0.94 nM	0.163 nM	2.34 nM	23.1 nM	0.55 nM	38.7 nM	–
Cc1cccc(F)c1N1Cc2cnc(N)cc2N([C@@H]2CCCN(C)CC2)C1=O [Example 84, 7-amino-3-(2-fluoro-6-methyl-phenyl)-1-[(4R)-1-methylazepan-4-yl]-4H-pyrido[4,3-d]pyrimidin-2-one]	0.467 nM	0.14 nM	14.9 nM	126 nM	0.302 nM	32.5 nM	–
Cc1cccc(F)c1N1Cc2cnc(N)cc2N([C@H]2CCN(C)C2)C1=O [Example 79, 7-amino-3-(2-fluoro-6-methyl-phenyl)-1-[(3S)-1-methylpyrrolidin-3-yl]-4H-pyrido[4,3-d]pyrimidin-2-one]	9.67 nM	6.5 nM	488 nM	> 10000 nM	85.4 nM	–	164 nM

More lines, now with the values ahead:

Ki (SIK1)	Ki (SIK2)	Ki (Abl)	Ki (Src)	Ki (SIK3)	Ki (EPHA2; 50 or 100 μM ATP, average)	Ki (EPHA2)	Compound
28.6 nM	14.2 nM	> 10000 nM	550 nM	54.7 nM	162 nM	–	Cc1cccc(Cl)c1N1Cc2cnc(N)nc2N(C2CN(C)C2)C1=O [Example 23, 7-amino-3-(2-chloro-6-methyl-phenyl)-1-(1-methylazetidin-3-yl)-4H-pyrimido[4,5-d]pyrimidin-2-one]
0.685 nM	0.222 nM	27.7 nM	64.6 nM	0.739 nM	17.3 nM	–	Cc1cccc(F)c1N1Cc2cnc(N)nc2N([C@H]2CC[C@H](N)CC2)C1=O [Example 77, 7-amino-1-(4-aminocyclohexyl)-3-(2-fluoro-6-methyl-phenyl)-4H-pyrimido[4,5-d]pyrimidin-2-one]
1.17 nM	0.383 nM	105 nM	287 nM	2.12 nM	–	38.7 nM	Cc1cccc(F)c1N1Cc2cnc(N)nc2N([C@H]2CCCN(C)CC2)C1=O [Example 35, 7-amino-3-(2-fluoro-6-methyl-phenyl)-1-[(4S)-1-methylazepan-4-yl]-4H-pyrimido[4,5-d]pyrimidin-2-one]
0.822 nM	0.149 nM	3.12 nM	39.3 nM	0.721 nM	27.9 nM	–	Cc1cccc(F)c1N1Cc2cnc(N)nc2N(CC2CCNCC2)C1=O [Example 12, 7-amino-3-(2-fluoro-6-methyl-phenyl)-1-(4-piperidylmethyl)-4H-pyrimido[4,5-d]pyrimidin-2-one]
47.4 nM	13.7 nM	> 10000 nM	2560 nM	47.9 nM	388 nM	–	Cc1cccc(F)c1N1Cc2cnc(N)nc2N(C2CN(C)C2)C1=O [Example 21, 7-amino-3-(2-fluoro-6-methyl-phenyl)-1-(1-methylazetidin-3-yl)-4H-pyrimido[4,5-d]pyrimidin-2-one]
0.397 nM	0.197 nM	15.3 nM	47.7 nM	0.845 nM	22.3 nM	–	Cc1cccc(F)c1N1Cc2cnc(N)nc2N([C@@H]2CCCNCC2)C1=O [Example 68, 7-amino-1-[(4R)-azepan-4-yl]-3-(2-fluoro-6-methyl-phenyl)-4H-pyrimido[4,5-d]pyrimidin-2-one]
1.26 nM	0.368 nM	104 nM	391 nM	6.28 nM	88.5 nM	–	Cc1cccc(F)c1N1Cc2cnc(N)nc2N([C@H]2CCCNC2)C1=O [Example 71, 7-amino-3-(2-fluoro-6-methyl-phenyl)-1-[(3S)-3-piperidyl]-4H-pyrimido[4,5-d]pyrimidin-2-one]
0.45 nM	0.121 nM	28.8 nM	18.9 nM	0.279 nM	46.5 nM	–	Cc1cccc(F)c1N1Cc2cnc(N)cc2N([C@H]2CC[C@H](N)CC2)C1=O [Example 58, trans-7-Amino-1-(4-aminocyclohexyl)-3-(2-fluoro-6-methyl-phenyl)-4H-pyrido[4,3-d]pyrimidin-2-one]
0.733 nM	0.374 nM	33.6 nM	138 nM	1.48 nM	–	29.6 nM	Cc1cccc(F)c1N1Cc2cnc(N)nc2N([C@@H]2CCCN(C)CC2)C1=O [Example 34, 7-amino-3-(2-fluoro-6-methyl-phenyl)-1[(4R)-1-methylazepan-4-yl]-4H-pyrimido[4,5-d]pyrimidin-2-one]
0.749 nM	0.244 nM	15.7 nM	55.5 nM	0.992 nM	34.2 nM	–	Cc1cccc(F)c1N1Cc2cnc(N)nc2N([C@H]2CC[C@H](N(C)C)CC2)C1=O [Example 45, trans-7-Amino-1-[4-(dimethylamino)cyclohexyl]-3-(2-fluoro-6-methyl-phenyl)-4H-pyrimido[4,5-d]pyrimidin-2-one]
1.3 nM	0.94 nM	36.8 nM	77.2 nM	9.92 nM	56.6 nM	–	Cc1cccc(F)c1N1Cc2cnc(N)nc2N([C@@H]2CCCNC2)C1=O [Example 73, 7-amino-3-(2-fluoro-6-methyl-phenyl)-1-[(3R)-3-piperidyl]-4H-pyrimido[4,5-d]pyrimidin-2-one]
1.38 nM	0.464 nM	18 nM	73.6 nM	2.6 nM	40.1 nM	–	CN[C@H]1CC[C@@H](N2C(=O)N(c3c(C)cccc3F)Cc3cnc(N)nc32)CC1 [Example 60, cis-7-Amino-3-(2-fluoro-6-methyl-phenyl)-1-[4-(methylamino)cyclohexyl]-4H-pyrimido[4,5-d]pyrimidin-2-one]
1.66 nM	0.444 nM	32.5 nM	86 nM	3.87 nM	35.8 nM	–	Cc1cccc(F)c1N1Cc2cnc(N)nc2N([C@H]2CC[C@@H](N(C)C)CC2)C1=O [Example 39, cis-7-amino-1-[4-(dimethylamino)cyclohexyl]-3-(2-fluoro-6-methyl-phenyl)-4H-pyrimido[4,5-d]pyrimidin-2-one]
2.5 nM	0.703 nM	53.2 nM	80.5 nM	6.65 nM	25.8 nM	–	Cc1cccc(F)c1N1Cc2cnc(N)nc2N([C@H]2CCCN(C)C2)C1=O [Example 37, 7-amino-3-(2-fluoro-6-methyl-phenyl)-1-[(3S)-1-methyl-3-piperidyl]-4H-pyrimido[4,5-d]pyrimidin-2-one]
